Laboratory results: paper PMC7408547, “Bivalent Inhibitor with Selectivity for Trimeric MMP-9 Amplifies Neutrophil Chemotaxis and Enables Functional Studies on MMP-9 Proteoforms” (Cells, 2020)
Several values for one entry are separate records, joined by “and”; a condition that tells them apart may be missing. Equal entries are not always repeated.

Legend:
Type in all cases: biochemical
[1] = target: T1, recombinant human MMP-9 mixture (± 70% monomers and ± 30% trimers) (Homo sapiens, UniProt P14780); experiment: Gelatin degradation assay, recombinant MMP-9 mixture; conditions: recombinant human MMP-9 (Sf9) mix, best-fit value
T1 construct: made in house; host or cells: Sf9 insect cells
T1 sequence (P14780 107-707 limits assumed): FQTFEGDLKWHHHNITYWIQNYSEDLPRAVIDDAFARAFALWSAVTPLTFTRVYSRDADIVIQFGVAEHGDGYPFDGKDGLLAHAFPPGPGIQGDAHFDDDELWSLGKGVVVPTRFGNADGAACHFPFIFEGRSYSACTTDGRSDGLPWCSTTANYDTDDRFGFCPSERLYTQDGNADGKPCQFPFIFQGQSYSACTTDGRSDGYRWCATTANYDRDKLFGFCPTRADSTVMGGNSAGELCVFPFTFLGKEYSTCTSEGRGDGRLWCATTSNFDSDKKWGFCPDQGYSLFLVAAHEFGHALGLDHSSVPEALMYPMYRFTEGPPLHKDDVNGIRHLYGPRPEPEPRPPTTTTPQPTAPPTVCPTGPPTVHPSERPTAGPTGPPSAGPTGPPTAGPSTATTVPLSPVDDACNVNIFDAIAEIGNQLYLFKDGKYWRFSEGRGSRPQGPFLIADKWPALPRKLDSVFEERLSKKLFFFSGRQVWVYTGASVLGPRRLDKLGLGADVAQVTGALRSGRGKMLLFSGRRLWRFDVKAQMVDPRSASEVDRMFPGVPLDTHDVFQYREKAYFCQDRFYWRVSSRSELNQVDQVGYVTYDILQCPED
Procedure: (§1) Compounds 5 and 7 were synthesized as previously reported. Full-length human proMMP-9 was produced by recombinant expression in Sf9 insect cells and purified by gelatin-Sepharose chromatography as previously described. Stable full-length proMMP-9 monomers and trimers were separated by glycerol gradient ultracentrifugation as previously described. ProMMP-9 mixture and the separated monomers and trimers were activated by incubation with the catalytic domain of MMP-3 (cat. No. 444217, Merck Millipore, Darmstadt, Germany) as previously described. Activation of proMMP-9 was confirmed by a band shift of ±10 kDa, corresponding to the removal of the auto-inhibitory propeptide domain and by detection of gelatinolytic activity with a previously described gelatin degradation assay. MMP-9 monomers and trimers purified from human neutrophils were purchased (Cat. No. 444,231 and 444232, Sigma-Aldrich, St. Louis, MO, USA). Examples of sample purities and activations can be found in Supplementary Figure S1. Recombinant human proMMP-2 (CHO cell-derived), proMMP-3 (NS0 cell-derived), proMMP-7 (NS0 cell-derived) and proMMP-8 (NS0 cell-derived) were purchased from R & D systems (Minneapolis, MN, USA), dissolved in assay buffer (150 mM NaCl, 5 mM CaCl2, 0.01% Tween-20, 50 mM Tris, pH 7.4) to a concentration of 100 µg/mL and activated by incubation with 1 mM p-aminophenylmercuric acetate for, respectively, 1h, 6h, 2h and 1h. Activation of MMPs was confirmed by a band shift of approximately 10 kDa, corresponding to the removal of the propeptide domain. MMP-14/MT1-MMP (NS0 cell-derived) was also purchased from R & D systems (Minneapolis, MN, USA) and activated by incubation with recombinant human furin (cat. No. 1503-SE-010, R & D systems, Minneapolis, MO, USA) in activation buffer (50 mM Tris, 1 mM CaCl2, 0.5% Brij-35, pH 9) for 1.5 h and activity was tested in assay buffer (50 mM Tris, 3 mM CaCl2, 1 µM ZnCl2, pH 8.5). Active human neutrophil elastase (NE) was purchased from Abcam (Cambridge, UK) and for activity assays of NE the assay buffer was replaced by 200 mM Tris, pH 8.8. ADAM17/TACE (Sf 21 (baculovirus)-derived, R & D systems, Minneapolis, MO, USA) was diluted and evaluated in 25 mM Tris, 2.5 μM ZnCl2, 0.005% Brij-35, pH 9.0. All stocks of the compounds were evaluated for the presence of endotoxin using the EndoZyme II assay (Hyglos bioMérieux, Bernried am Starnberger See, Germany). Endotoxin levels in all concentrated stocks (2.5 mg/mL) were below the accepted limit of 0.5 EU/mL.
(§2) To determine the inhibition of gelatinolytic activity, we used a previously optimized gelatin degradation assay. Activated MMP-9, activated MMP-2, neutrophil elastase or supernatants of stimulated neutrophils, were incubated with different concentrations of inhibitors and incubated for 30 min at 37 °C. Next, dye-quenched gelatin (DQ™-gelatin, Invitrogen, Carlsbad, CA, USA) was added at a final concentration of 2.5 µg/mL and the increase in fluorescence over time was measured with the CLARIOstar microplate reader (BMG Labtech, Ortenberg, Germany). For other MMPs, the OmniMMP substrate peptide (Mca-PLGL-Dpa-AR-NH2, cat. no. BML-P126-0001, Enzo Life Sciences, Farmingdale, NY, USA) was used at a final concentration of 2.5 µg/mL. For ADAM17 the fluorogenic peptide Mca-PLAQAV-Dpa-RSSSR-NH2 (ES003, R & D systems, Minneapolis, MO, USA) and for neutrophil elastase the fluorogenic substrate MeOSuc-AAPV-AMC (cat. no. 324740, Merck Millipore, Darmstadt, Germany) were used. Proteolytic activity was determined by linear regression of the fluorescence curve and the percentage inhibition was calculated through comparison with the positive control (no inhibitors). When testing supernatants from human neutrophils, the assay was performed in the presence of 20 µM neutrophil elastase inhibitor (Elastase Inhibitor IV, Calbiochem, Darmstadt, Germany).

[2] = target: T2, recombinant human MMP-9 monomers (Homo sapiens, UniProt P14780); experiment: Gelatin degradation assay, recombinant MMP-9 monomers; conditions: recombinant human MMP-9 (Sf9) mono
T2 construct: made in house; host or cells: Sf9 insect cells
T2 sequence (P14780 107-707 limits assumed): as above
Procedure: as §1, §2

[3] = target: T3, recombinant human MMP-9 trimers (Homo sapiens, UniProt P14780); experiment: Fluorogenic peptide (OmniMMP) degradation assay, recombinant MMP-9 trimers; conditions: recombinant human MMP-9 (Sf9) tri
T3 construct: made in house; host or cells: Sf9 insect cells
T3 sequence (P14780 107-707 limits assumed): as above
Procedure: as §1, §2

[4] = target: T4, human neutrophil-derived MMP-9 monomers (Homo sapiens, UniProt P14780); experiment: Gelatin degradation assay, neutrophil-derived MMP-9 monomers; conditions: MMP-9 isolated from human neutrophils, mono
T4 construct: purchased Sigma-Aldrich 444,231; host or cells: human neutrophils (natural protein)
T4 sequence (P14780 107-707 limits assumed): as above
Procedure: as §1, §2

[5] = target: T5, human neutrophil-derived MMP-9 trimers (Homo sapiens, UniProt P14780); experiment: Gelatin degradation assay, neutrophil-derived MMP-9 trimers; conditions: for IC25 / IC50 / IC75: MMP-9 isolated from human neutrophils, tri, gelatin degradation
T5 construct: purchased Sigma-Aldrich 444232; host or cells: human neutrophils (natural protein)
T5 sequence (P14780 107-707 limits assumed): as above
Procedure: as §1, §2

MMP-2 = target: T6, MMP-2 (Homo sapiens, UniProt P08253); experiment: MMP-2 gelatin degradation assay; conditions: gelatin substrate
T6 construct: purchased R & D systems; host or cells: CHO cells
T6 sequence (P08253 110-660): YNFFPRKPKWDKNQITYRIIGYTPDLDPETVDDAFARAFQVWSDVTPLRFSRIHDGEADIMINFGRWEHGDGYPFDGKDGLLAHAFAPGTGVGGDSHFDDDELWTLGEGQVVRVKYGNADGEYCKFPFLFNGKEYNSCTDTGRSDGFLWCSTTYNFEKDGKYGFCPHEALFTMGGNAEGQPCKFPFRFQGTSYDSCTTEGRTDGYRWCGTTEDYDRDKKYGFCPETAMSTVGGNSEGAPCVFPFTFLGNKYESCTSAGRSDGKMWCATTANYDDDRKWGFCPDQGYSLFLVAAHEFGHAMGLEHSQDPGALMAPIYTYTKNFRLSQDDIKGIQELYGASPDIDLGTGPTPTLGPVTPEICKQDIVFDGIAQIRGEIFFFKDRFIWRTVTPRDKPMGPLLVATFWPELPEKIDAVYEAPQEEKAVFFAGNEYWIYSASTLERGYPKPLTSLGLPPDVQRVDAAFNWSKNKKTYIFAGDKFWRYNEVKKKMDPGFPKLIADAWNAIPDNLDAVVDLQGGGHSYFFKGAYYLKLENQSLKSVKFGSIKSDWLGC
Procedure: Compounds 5 and 7 were synthesized as previously reported. Full-length human proMMP-9 was produced by recombinant expression in Sf9 insect cells and purified by gelatin-Sepharose chromatography as previously described. Stable full-length proMMP-9 monomers and trimers were separated by glycerol gradient ultracentrifugation as previously described. ProMMP-9 mixture and the separated monomers and trimers were activated by incubation with the catalytic domain of MMP-3 (cat. No. 444217, Merck Millipore, Darmstadt, Germany) as previously described. […] ADAM17/TACE (Sf 21 (baculovirus)-derived, R & D systems, Minneapolis, MO, USA) was diluted and evaluated in 25 mM Tris, 2.5 μM ZnCl2, 0.005% Brij-35, pH 9.0. All stocks of the compounds were evaluated for the presence of endotoxin using the EndoZyme II assay (Hyglos bioMérieux, Bernried am Starnberger See, Germany). […]
To determine the inhibition of gelatinolytic activity, we used a previously optimized gelatin degradation assay. […] Next, dye-quenched gelatin (DQ™-gelatin, Invitrogen, Carlsbad, CA, USA) was added at a final concentration of 2.5 µg/mL and the increase in fluorescence over time was measured with the CLARIOstar microplate reader (BMG Labtech, Ortenberg, Germany). […]

SMILES | IC25 [1] [nM] | IC50 [1] [nM] | IC75 [1] [µM] | IC25 [2] [nM] | IC50 [2] [nM] | IC75 [2] [µM] | IC25 [3] [nM] | IC50 [3] | IC75 [3] [nM] | IC25 [4] [nM] | IC50 [4] [nM] | IC75 [4] [nM] | IC25 [5] [nM] | IC50 [5] [nM] | IC75 [5] [µM] | IC50 (MMP-2) [nM] | fold difference between monomeric and trimeric MMP-9 ([5]; MMP-9 purified from human neutrophils, gelatin substrate) [fold]
CC(C)[C@H](C(=O)O)N(CCNC(=O)c1ccccc1)S(=O)(=O)c1ccc(-c2ccccc2)cc1 [Compound 5] | 359 | 1410 | 5.509 | 392 | 1520 | 5.859 | 237 | 724 nM | 2211 | 300 | 1150 | 4431 | 479 | 4220 | 17.212 | 1720 | –
CC(C)[C@H](C(=O)O)N(CCNC(=O)c1cccc(C(=O)NCCN([C@@H](C(=O)O)C(C)C)S(=O)(=O)c2ccc(-c3ccccc3)cc2)c1)S(=O)(=O)c1ccc(-c2ccccc2)cc1 [Compound 7] | 28 | 182 | 0.627 | 48 | 191 | 0.754 | 0.0017 | ~0.1 nM and 0.1 nM | 6.0 | 10 | 43 | 181 | 0.008 | 0.066 | 0.0006 | 4.8 | 650
